Data from PubChem BioAssay (NCI).
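Grown in 96-well plates, cells were treated for 48 hours with each compound at five concentrations. Insufficient inhibition: endpoint recorded as highest concentration tested. GI50 is the concentration that inhibits growth by half. Definition used: TGI = concentration required for complete inhibition of growth.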

How the values were obtained:
Test in all cases: growth of human tumour cells (NCI), 48 h
SF-539 CNS = tested on: SF-539 CNS
HCT-15 colon = tested on: HCT-15 colon
SW-620 colon = tested on: SW-620 colon
DU-145 prostate = tested on: DU-145 prostate
SNB-19 CNS = tested on: SNB-19 CNS
BT-549 breast = tested on: BT-549 breast
SK-MEL-28 melanoma = tested on: SK-MEL-28 melanoma
HOP-92 NSCLC = tested on: HOP-92 NSCLC
OVCAR-3 ovarian = tested on: OVCAR-3 ovarian
NCI-H522 lung = tested on: NCI-H522 lung
SF-268 CNS = tested on: SF-268 CNS
COLO 205 colon = tested on: COLO 205 colon
HT29 colon = tested on: HT29 colon
MCF7 breast = tested on: MCF7 breast
SK-OV-3 ovarian = tested on: SK-OV-3 ovarian
PC-3 prostate = tested on: PC-3 prostate
A549 NSCLC = tested on: A549 NSCLC
ACHN renal = tested on: ACHN renal
HOP-62 NSCLC = tested on: HOP-62 NSCLC
EKVX NSCLC = tested on: EKVX NSCLC
KM12 colon = tested on: KM12 colon
SF-295 CNS = tested on: SF-295 CNS
HCT-116 colon = tested on: HCT-116 colon
UO-31 renal = tested on: UO-31 renal
SNB-75 CNS = tested on: SNB-75 CNS
OVCAR-8 ovarian = tested on: OVCAR-8 ovarian
CAKI-1 renal = tested on: CAKI-1 renal
NCI-H460 lung = tested on: NCI-H460 lung
LOX IMVI melanoma = tested on: LOX IMVI melanoma
NCI-H226 lung = tested on: NCI-H226 lung
MDA-MB-435 = tested on: MDA-MB-435
HS 578T breast = tested on: HS 578T breast
TK-10 renal = tested on: TK-10 renal
MOLT-4 leukemia = tested on: MOLT-4 leukemia
K-562 leukemia = tested on: K-562 leukemia
786-0 renal = tested on: 786-0 renal
OVCAR-4 ovarian = tested on: OVCAR-4 ovarian
UACC-257 melanoma = tested on: UACC-257 melanoma
CCRF-CEM leukemia = tested on: CCRF-CEM leukemia
U251 CNS = tested on: U251 CNS
SN12C renal = tested on: SN12C renal
RXF 393 renal = tested on: RXF 393 renal
RPMI-8226 leukemia = tested on: RPMI-8226 leukemia
A498 renal = tested on: A498 renal
SK-MEL-2 melanoma = tested on: SK-MEL-2 melanoma
IGROV1 ovarian = tested on: IGROV1 ovarian
MDA-MB-231 breast = tested on: MDA-MB-231 breast
HL-60(TB) leukemia = tested on: HL-60(TB) leukemia
SK-MEL-5 melanoma = tested on: SK-MEL-5 melanoma
T-47D breast = tested on: T-47D breast
UACC-62 melanoma = tested on: UACC-62 melanoma
M14 melanoma = tested on: M14 melanoma
SR leukemia = tested on: SR leukemia

## O=C(Nc1ccccc1)NS(=O)(=O)c1ccc(-n2nc3c(c2-c2ccc(Cl)cc2)Cc2ccccc2-3)cc1
SF-539 CNS
  GI50: 18.8 µM
  TGI: 45.6 µM
HCT-15 colon
  GI50: 18.5 µM
  TGI: 69.7 µM
SW-620 colon
  GI50: 23 µM
  TGI: 55.4 µM
DU-145 prostate
  GI50: 19.4 µM
  TGI: 47 µM
SNB-19 CNS
  GI50: 61.5 µM
  TGI: > 100 µM
BT-549 breast
  GI50: 21 µM
  TGI: 65.9 µM
SK-MEL-28 melanoma
  GI50: 33.7 µM
  TGI: > 100 µM
HOP-92 NSCLC
  GI50: 17.1 µM
  TGI: 67 µM
OVCAR-3 ovarian
  GI50: 18.3 µM
  TGI: 54.2 µM
NCI-H522 lung
  GI50: 19 µM
  TGI: 67.4 µM
SF-268 CNS
  GI50: 14.8 µM
  TGI: 88.2 µM
COLO 205 colon
  GI50: 23.5 µM
  TGI: 64.9 µM
HT29 colon
  GI50: 29.8 µM
  TGI: > 100 µM
MCF7 breast
  GI50: 11.2 µM
  TGI: 28.2 µM
SK-OV-3 ovarian
  GI50: 53.9 µM
  TGI: > 100 µM
PC-3 prostate
  GI50: 16.7 µM
  TGI: 47.8 µM
A549 NSCLC
  GI50: 24.5 µM
  TGI: > 100 µM
ACHN renal
  GI50: 12.9 µM
  TGI: 71.8 µM
HOP-62 NSCLC
  GI50: 72 µM
  TGI: > 100 µM
EKVX NSCLC
  GI50: 15.8 µM
  TGI: 78.9 µM
KM12 colon
  GI50: 16 µM
  TGI: 55.1 µM
SF-295 CNS
  GI50: 18.2 µM
  TGI: 78.1 µM
HCT-116 colon
  GI50: 22.5 µM
  TGI: > 100 µM
UO-31 renal
  GI50: 24.5 µM
  TGI: > 100 µM
SNB-75 CNS
  GI50: 48.7 µM
  TGI: > 100 µM
OVCAR-8 ovarian
  GI50: 24.7 µM
  TGI: 86.8 µM
CAKI-1 renal
  GI50: 4.37 µM
  TGI: 29.2 µM
NCI-H460 lung
  GI50: 22.3 µM
  TGI: 85.1 µM
LOX IMVI melanoma
  GI50: 15.3 µM
  TGI: 46.4 µM
NCI-H226 lung
  GI50: 15.5 µM
  TGI: 61.9 µM
MDA-MB-435
  GI50: 16.8 µM
  TGI: 52.7 µM
HS 578T breast
  GI50: 19.6 µM
  TGI: 82.3 µM
TK-10 renal
  GI50: 18.3 µM
  TGI: 74.4 µM
MOLT-4 leukemia
  GI50: 7.05 µM
  TGI: 42.4 µM
K-562 leukemia
  GI50: 4.66 µM
  TGI: 21.9 µM
786-0 renal
  GI50: 27.5 µM
  TGI: > 100 µM
OVCAR-4 ovarian
  GI50: 45.2 µM
  TGI: > 100 µM
UACC-257 melanoma
  GI50: 37.1 µM
  TGI: > 100 µM
CCRF-CEM leukemia
  GI50: 3.21 µM
  TGI: 10.2 µM
U251 CNS
  GI50: 22.3 µM
  TGI: 63.2 µM
SN12C renal
  GI50: 23.2 µM
  TGI: 66.6 µM
RXF 393 renal
  GI50: 22.2 µM
  TGI: 85.7 µM
RPMI-8226 leukemia
  GI50: 16.5 µM
  TGI: 48.9 µM
A498 renal
  GI50: 21.8 µM
  TGI: 66.8 µM
SK-MEL-2 melanoma
  GI50: 27.4 µM
  TGI: 91.8 µM
IGROV1 ovarian
  GI50: 28.5 µM
  TGI: > 100 µM
MDA-MB-231 breast
  GI50: 14.7 µM
  TGI: 63.3 µM
HL-60(TB) leukemia
  GI50: 13.4 µM
  TGI: 35.6 µM
SK-MEL-5 melanoma
  GI50: 22 µM
  TGI: 69.8 µM
T-47D breast
  GI50: 49.9 µM
  TGI: > 100 µM
UACC-62 melanoma
  GI50: 12.2 µM
  TGI: 30.6 µM
M14 melanoma
  GI50: 34.5 µM
  TGI: > 100 µM
SR leukemia
  GI50: 2.82 µM
  TGI: 7.18 µM
